Measurements reported in the supplement of paper PMC11208160.

Assay: recombinant barcode read abundance after kanamycin selection (control-corrected) (log10(CPM+1)); higher = more efficient recombination; sequences stand for … in AGTGCAGAGAAAATCGGCCAGTTTTCTCTGCCTGCAGTCCGCATGCCGT…AGATTTATGCAGCGGACTGCCTTTCTCCCAAAGTGATAAACCGGACAGTATCATGGACCGGTTTTCCCGGTAATCCGTATTTGCAAGGTTGGTTTCACT; site = the 11-nt target
Procedure: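 Pooled E. coli target-specificity screen for the IS621 bridge recombinase. Each library plasmid pairs an 11-nt target (CT core) with a bridge RNA whose target-binding loop (9-nt LTG + 4-nt RTG) is reprogrammed; the rest of the 177-nt WT IS621 bridge RNA scaffold is fixed. The plasmid is co-electroporated with a WT donor plasmid; recombinase is induced with 0.1 mM IPTG and recombinants are selected on kanamycin. Recombinant barcodes are sequenced, converted to CPM, averaged over two biological replicates and corrected by the unselected control CPM. Molecule = full bridge RNA written as DNA: LTG = specificity nt 1-9, RTG = reverse complement of specificity nt 8-11, in the WT scaffold.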
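Further: IS621 recombinase and bridge RNA in Escherichia coli cells.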

| Sequence | recombinant barcode read abundance (log10) |
| --- | --- |
| ACTTGTACTTGGGTTCTAACCTGTTGCAT (site ACTTGTACTAT) | 1.22 |
| ACTTTACCTTGGGTTCTAACCTGTTGCCT (site ACTTTACCTAG) | 0.188 |
| ACTTTACCTTGGGTTCTAACCTGTTGCCT (site CCTTTACCTAG) | 0.324 |
| ACTTTACCTTGGGTTCTAACCTGTTGCCT (site GCTTTACCTAG) | 0.0495 |
| ACTTTACCTTGGGTTCTAACCTGTTGCCT (site TCTTTACCTAG) | 0.186 |
| AGAACACCTTGGGTTCTAACCTGTTGCTT (site AGAACACCTAA) | 0.525 |
| AGAACACCTTGGGTTCTAACCTGTTGCTT (site GAGGAGTCTCG) | 0.13 |
| AGAACTACTTGGGTTCTAACCTGTTGCCT (site AGAACTACTAG) | 0.384 |
| AGAACTACTTGGGTTCTAACCTGTTGCCT (site AGGACTACTAG) | 0.162 |
| AGAACTCCTTGGGTTCTAACCTGTTGCGA (site AGAACTCCTTC) | 1.03 |
| AGAACTCCTTGGGTTCTAACCTGTTGCGA (site CTGGAGACTAA) | 0.42 |
| AGAAGATCTTGGGTTCTAACCTGTTGCCT (site AGAAGATCTAG) | 0.706 |
| AGAAGATCTTGGGTTCTAACCTGTTGCCT (site TACCTTACTCT) | 0.0563 |
| AGAAGTCCTTGGGTTCTAACCTGTTGCAG (site AGAAGTCCTCA) | 0.83 |
| AGAAGTCCTTGGGTTCTAACCTGTTGCAG (site AGAAGTCCTCC) | 0.246 |
| AGAAGTCCTTGGGTTCTAACCTGTTGCAG (site AGAAGTCCTCG) | 0.366 |
| AGAAGTCCTTGGGTTCTAACCTGTTGCAG (site AGAAGTCCTCT) | 1.56 |
| AGAATCCCTTGGGTTCTAACCTGTTGCAT (site AGAATCCCTAT) | 1.49 |
| AGAATCCCTTGGGTTCTAACCTGTTGCAT (site ATAAACCCTAT) | 0.0539 |
| AGACAGTCTTGGGTTCTAACCTGTTGCCA (site AGACAGTCTTG) | 0.311 |
| AGACAGTCTTGGGTTCTAACCTGTTGCCA (site GACTGAGCTCC) | 0.0895 |

| Sequence | recombinant barcode read abundance (log10) |
| --- | --- |
| AGACGTACTTGGGTTCTAACCTGTTGCCT (site AGACGTACTAG) | 1.65 |
| AGACGTACTTGGGTTCTAACCTGTTGCCT (site AGCCGTACTAG) | 0.102 |
| AGACGTACTTGGGTTCTAACCTGTTGCCT (site AGGCGTACTAG) | 0.128 |
| AGACGTACTTGGGTTCTAACCTGTTGCCT (site AGTCGTACTAG) | 0.0904 |
| AGACGTCCTTGGGTTCTAACCTGTTGCTT (site AGACATCCTAA) | 0.197 |
| AGACGTCCTTGGGTTCTAACCTGTTGCTT (site AGACCTCCTAA) | 0.162 |
| AGACGTCCTTGGGTTCTAACCTGTTGCTT (site AGACGTCCTAA) | 1.03 |
| AGACGTCCTTGGGTTCTAACCTGTTGCTT (site AGACTTCCTAA) | 0.15 |
| AGAGCTCCTTGGGTTCTAACCTGTTGCGG (site AGAGCTCCTCC) | 1.28 |
| AGAGCTCCTTGGGTTCTAACCTGTTGCGG (site AGTGCTCCTCC) | 0.196 |
| AGAGGACCTTGGGTTCTAACCTGTTGCCT (site AGAGGACCTAG) | 2.32 |
| AGAGGACCTTGGGTTCTAACCTGTTGCCT (site TGAGCACCTAG) | 0.213 |
| AGAGGTTCTTGGGTTCTAACCTGTTGCCT (site AAAGGTTCTAG) | 0.141 |
| AGAGGTTCTTGGGTTCTAACCTGTTGCCT (site ACAGGTTCTAG) | 0.0172 |
| AGAGGTTCTTGGGTTCTAACCTGTTGCCT (site AGAGGTTCTAG) | 1.58 |
| AGAGGTTCTTGGGTTCTAACCTGTTGCCT (site ATAGGTTCTAG) | 0.271 |
| AGAGTAACTTGGGTTCTAACCTGTTGCAC (site AGAGTAACTGT) | 2.19 |
| AGAGTAACTTGGGTTCTAACCTGTTGCAC (site TCTCGTTCTTA) | 0.063 |
| AGAGTCCCTTGGGTTCTAACCTGTTGCGG (site AGAGTCCCTCC) | 3.09 |
| AGAGTCCCTTGGGTTCTAACCTGTTGCGG (site AGAGTCTCTCA) | 0.295 |
| AGAGTCTCTTGGGTTCTAACCTGTTGCTG (site AGAGTCCCTCC) | 0.101 |

| Sequence | recombinant barcode read abundance (log10) |
| --- | --- |
| AGAGTCTCTTGGGTTCTAACCTGTTGCTG (site AGAGTCTCTCA) | 0.78 |
| AGATACTCTTGGGTTCTAACCTGTTGCCT (site ACATAGTCTAG) | 0.428 |
| AGATACTCTTGGGTTCTAACCTGTTGCCT (site AGATACTCTAG) | 2.66 |
| AGATATACTTGGGTTCTAACCTGTTGCTT (site AGATATACTAA) | 0.167 |
| AGATATACTTGGGTTCTAACCTGTTGCTT (site CACCTGTCTCC) | 0.0796 |
| AGATCTCCTTGGGTTCTAACCTGTTGCGT (site AGATCTCCTAC) | 0.777 |
| AGATCTCCTTGGGTTCTAACCTGTTGCGT (site TCGAAGTCTTA) | 0.0154 |
| AGATGAGCTTGGGTTCTAACCTGTTGCGG (site AAATGGGCTCC) | 0.0978 |
| AGATGAGCTTGGGTTCTAACCTGTTGCGG (site AGATGAGCTCC) | 1.51 |
| AGATGTGCTTGGGTTCTAACCTGTTGCCT (site AGATGTGCTAG) | 1.49 |
| AGATGTGCTTGGGTTCTAACCTGTTGCCT (site CACAAACCTCT) | 0.181 |
| AGATTATCTTGGGTTCTAACCTGTTGCCT (site AGAATATCTAG) | 0.21 |
| AGATTATCTTGGGTTCTAACCTGTTGCCT (site AGATTATCTAG) | 1.32 |
| AGCAGCACTTGGGTTCTAACCTGTTGCCT (site AGCAGCACTAG) | 0.731 |
| AGCAGCACTTGGGTTCTAACCTGTTGCCT (site CGCAGCACTAG) | 0.298 |
| AGCAGTACTTGGGTTCTAACCTGTTGCTA (site AGCAGTACTTA) | 0.299 |
| AGCAGTACTTGGGTTCTAACCTGTTGCTA (site TTGGAGGCTAG) | 0.248 |
| AGCATCTCTTGGGTTCTAACCTGTTGCCG (site AGCATCTCTCG) | 0.222 |
| AGCATCTCTTGGGTTCTAACCTGTTGCCG (site CCTTGTACTAA) | 0.0503 |
| AGCATTCCTTGGGTTCTAACCTGTTGCCT (site AGCAGTGCTAG) | 0.144 |
| AGCATTCCTTGGGTTCTAACCTGTTGCCT (site AGCATTCCTAG) | 0.394 |

| Sequence | recombinant barcode read abundance (log10) |
| --- | --- |
| AGCCCTCCTTGGGTTCTAACCTGTTGCTC (site AGCCCTCCTAA) | 0.01 |
| AGCCCTCCTTGGGTTCTAACCTGTTGCTC (site AGCCCTCCTCA) | 0.26 |
| AGCCCTCCTTGGGTTCTAACCTGTTGCTC (site AGCCCTCCTGA) | 1.19 |
| AGCCCTCCTTGGGTTCTAACCTGTTGCTC (site AGCCCTCCTTA) | 0.0233 |
| AGCGGTCCTTGGGTTCTAACCTGTTGCCT (site AGCGGACCTAG) | 0.797 |
| AGCGGTCCTTGGGTTCTAACCTGTTGCCT (site AGCGGCCCTAG) | 1.05 |
| AGCGGTCCTTGGGTTCTAACCTGTTGCCT (site AGCGGGCCTAG) | 0.409 |
| AGCGGTCCTTGGGTTCTAACCTGTTGCCT (site AGCGGTCCTAG) | 1.89 |
| AGCGTCGCTTGGGTTCTAACCTGTTGCCT (site AGCGTCGCTAG) | 1.45 |
| AGCGTCGCTTGGGTTCTAACCTGTTGCCT (site TGCGTCGCTAG) | 0.16 |
| AGCGTTGCTTGGGTTCTAACCTGTTGCCT (site AGCATTGCTAG) | 0.558 |
| AGCGTTGCTTGGGTTCTAACCTGTTGCCT (site AGCCTTGCTAG) | 0.142 |
| AGCGTTGCTTGGGTTCTAACCTGTTGCCT (site AGCGTTGCTAG) | 1.05 |
| AGCGTTGCTTGGGTTCTAACCTGTTGCCT (site AGCTTTGCTAG) | 0.16 |
| AGCTCCGCTTGGGTTCTAACCTGTTGCCT (site AGCTCCGCTAG) | 0.222 |
| AGCTCCGCTTGGGTTCTAACCTGTTGCCT (site TGCTCGGCTAG) | 0.2 |
| AGCTGATCTTGGGTTCTAACCTGTTGCCT (site AGCTGATCTAG) | 0.261 |
| AGCTGATCTTGGGTTCTAACCTGTTGCCT (site CGCTGATCTAG) | 0.0237 |
| AGCTGATCTTGGGTTCTAACCTGTTGCCT (site GGCTGATCTAG) | 0.147 |
